Reference: article PMC9860980, “Pharmacokinetics and Pharmacodynamics (PK/PD) of Corallopyronin A against Methicillin-Resistant Staphylococcus aureus” (Pharmaceutics, 2022)

Key:
[1] = test system: S. aureus strain ATCC 33591 (MRSA-strain); settings: 5 mg/kg IP TID; 24 h post infection
Protocol: Organ samples were thawed and homogenized using a Polytron tissue homogenizer after addition of 3 mL isotonic sodium chloride solution. First, a calibration curve was prepared by spiking different concentrations of CorA into the respective matrix from CD-1 mice. Caffeine was used as an internal standard. In addition, quality control samples (QCs) were prepared for CorA for every matrix. For PD samples, calibration curve and QCs were prepared for levofloxacin using the same protocol. The following extraction procedure was used: 50 µL of a sample (calibration sample, QCs, PK or PD sample) was extracted with 20 µL of acetic acid in water (10/90 (v/v)) and 30 µL acetonitrile for 5 min at 800 rpm on an Eppendorf MixMate® vortex mixer. Then, samples were spun down for 20 min at 4 °C and 4000 rpm and supernatants were transferred to new Greiner 96-well V-bottom plates. Samples were analyzed using an Agilent 1290 Infinity II HPLC system (Waldbronn, Germany) coupled to an AB Sciex QTrap6500plus mass spectrometer (Darmstadt, Germany). LC conditions were as follows: column: Agilent Zorbax Exlipse Plus C18, 50 × 2.1 mm, 1.8 µm; temperature: 30 °C; injection volume: 5 µL per sample; flow rate: 800 µL/min. Samples were run under buffered conditions: A: 95% water + 5% acetonitrile + 5 mM ammonium acetate + 40 µL/L acetic acid; B: 95% acetonitrile + 5% water + 5 mM ammonium acetate + 40 µL/L acetic acid. The gradient was as follows: 99% A at 0 min, 99% A until 0.1 min, 99–0% A from 0.1 min to 4.0 min, 0% A until 4.5 min. Mass transitions for controls and compounds are depicted in Table S1. Peaks of PK samples were quantified using the calibration curve. The accuracy of the calibration curve was determined using QCs independently prepared on different days. PK parameters were determined using a non-compartmental analysis with PKSolver.
Inocula were prepared as described previously with the modification that isotonic sodium chloride solution was used instead of PBS [25]. For the neutropenic thigh and the neutropenic lung infection model the S. aureus strain ATCC 33591 (MRSA-strain) was used. For the neutropenic lung infection model an inoculum of 2 × 10^9 cfu/mL was used. For the neutropenic thigh infection model an inoculum of 7 × 10^5 cfu/mL was used.
The model was conducted as described previously. In brief, the following groups were used: (1) inoculum control group with terminal endpoint at 2 h post infection to determine baseline inoculum in vivo; (2) vehicle-treated group receiving 20 mg/kg SC tramadol and vehicle (PEG400/PBS (80:20 (v/v)); (3) levofloxacin group 5 mg/kg IP three times a day (TID) (t = 2, 6 and 10 h post infection); (4) CorA 60 mg/kg IP TID (t = 2, 6 and 10 h post infection) and (5) CorA 100 mg/kg IP BID (t = 2 and 6 h post infection). The endpoint for groups no. 2–5 was 24 h post infection. A solution of […].

[2] = test system: S. aureus strain ATCC 33591 (MRSA-strain); assay: Neutropenic lung infection model with MRSA; type: in vivo, Staphylococcus aureus; settings: 100 mg/kg IP (t = 2 h post infection); 24 h post infection
Protocol: Female, 8-week-old CD-1 mice (Charles River, Sulzfeld, Germany) were used (n = 6 animals per group). Animals were rendered neutropenic by administration of 150 mg/kg and 100 mg/kg cyclophosphamide IP on days -4 and -1, respectively. On the day of infection (day 0), mice received 15 µL of the inoculum administered via an Aeroneb® nebulizer device (Kent Scientific, Torrington, CT, USA) under anesthesia (100 mg/kg ketamine and 10 mg/kg xylazine). Mice were treated with (I) vehicle IP (PEG400/PBS), (II) with levofloxacin at 100 mg/kg IP (t = 2 h post infection, positive control group), (III) CorA at 60 mg/kg IP TID (t = 2, 5 and 9 h post infection) or (IV) CorA at 60 mg/kg IP (t = 2 h post infection) and 100 mg/kg SC BID (t = 5 and 9 h post infection).
Twenty-four hours after infection, mice were euthanized, blood was removed from the heart and lungs were aseptically removed. Whole blood was collected into Eppendorf (Hamburg, Germany) tubes coated with 0.5 M EDTA, immediately spun down at 13,000 rpm for 10 min at 4 °C, the plasma transferred into a new Eppendorf tube and stored at −80 °C until analysis. Organs were homogenized in isotonic sodium chloride solution and plated onto blood agar plates in duplicates in serial dilutions and incubated at 37 °C for 24 h.

C[C@H]1COc2c(N3CCN(C)CC3)c(F)cc3c(=O)c(C(=O)O)cn1c23 [Levofloxacin, reference compound]
bacterial burden in thigh tissue [1]: significant reduction
reduction of bacterial burden in lung tissue compared to the vehicle-treated group [1]: approximately 2 log10-units
reduction in bacterial burden in lung tissue [2]: more than 2 log10-units
